Data as given in patent US20240197650A1, “Combination of Cinnamaldheyde and Eugenol with Antimycotic Activity” (priority 2021, published 2024).

What was measured:
[1] = test system: L. acidophilus strain La-14; experiment: Microdilution vs L. acidophilus; format: cell-based, Lactobacillus acidophilus; conditions: for MIC vs L. acidophilus: MRS broth, 37° C. 48 hours, anaerobiosis; for MIC vs L. acidophilus relative to the observed maximum MIC vs Candida spp: maximum MIC in 2 strains out of 18 only
Protocol: The antibacterial activity of […] eugenol vs L. acidophilus was studied by using the disk diffusion method (reading scheme as reported in FIG. 1) and the microdilution method (reading scheme as reported in FIG. 2). A L. acidophilus strain named La-14 (Danisco SpA, Milan, Italy) was tested. The essential oils (80% oil, 20% DMSO) were dissolved in MRS broth up to a concentration of 8% v/v (so obtaining a final concentration of 4% v/v). In a 96-well microtiter plate, 1⁄2 serial dilutions of the oils were carried out (volume: 100 μl. […] Each well was then injected with 100 μl of the cell suspension. The microtiter plates were incubated at 37° C. for 48 hours in anaerobiosis. MIC was determined as the concentration of the oils in the first well which is not cloudy. The experiment was carried out in duplicate.

C. glabrata = experiment: Disk diffusion method, C. glabrata strains; format: cell-based
Protocol: A total of eighteen strains belonging to Candida spp. (15 C. albicans, 2 C. glabrata and 1 C. lusitaniae) derived from a collection of vaginal strains isolated in CHROMAgar Candida (BD Italia SpA, Milan, Italy) were grown on Potato Dextrose Agar (Oxoid Thermofisher SpA, Milan, Italy) at 35° C. for 24 hours.
Colonies were re-suspended in sterile saline at a density corresponding to #0.5 McFarland (opacity standard). #0.5 McF correspond to 1.4×10^6 colony forming units (CFU)/ml for C. albicans, 4.3×10^6 CFU/ml for C. glabrata and 3×10^6 CFU/ml for C. lusitaniae [Guinea J. et al., Rapid antifungal susceptibility determination for yeast isolates by use of Etest performed directly on blood samples from patients with fungemia, J Clin Microbiol. 2010 June, 48(6): 2205-12]. Then, the sensitivity test vs the two oils has been performed. The disk diffusion method was carried out as follows: for each tested strain, 4 plates of Potato Dextrose Agar (PDA) were seeded in 3 directions to produce a confluent growth, by sterile swab soaked in the cell suspension. Sorbent paper disks (Oxoid Thermofisher SpA, Milan, Italy) 6.0 mm diameter were placed on the agar surface and added with 10 μl of each essential oil. Disks soaked with 10 μg amphotericin B were used as positive control. Also disks of chlortrimazole (from 10 μg to 40 μg) were used, but the inhibition rings could not be clearly read due to the formation of a re-growth ring. Disks soaked with 10 μl pure dimethylsulphoxide (DMSO, Sigma-Aldrich, St. Louis, MO, USA) were used as negative control. The plates were incubated at 35° C. for 24 hours. All the experiments were carried out in duplicate. The inhibiting effect of the oils were considered to be effective when the inhibition ring was equal or greater than that caused by amphotericin B. For amphotericin B, an inhibition zone (IZ)≥15 mm was considered as “sensitivity”, from 10 to 14 mm as “intermediate sensitivity” and <10 mm as “resistance” [Kauser et al., Agreement of Direct Antifungal Susceptibility Testing from Positive Blood Culture Bottles with Conventional Method for Candida Species, J Clin Microbiol. 2016 February, 54(2):343-34].

[2] = test system: L. acidophilus strain La-14; experiment: Disk diffusion vs L. acidophilus; format: cell-based, Lactobacillus acidophilus; conditions: 10 μl oil per disk; MRS agar, 37° C. 24 hours, anaerobiosis
Protocol: The antibacterial activity of cinnamaldheyde and eugenol vs L. acidophilus was studied by using the disk diffusion method (reading scheme as reported in FIG. 1) and the microdilution method (reading scheme as reported in FIG. 2). A L. acidophilus strain named La-14 (Danisco SpA, Milan, Italy) was tested.
Colonies deriving from a 24-hour culture in DeManRogosaSharpe agar (MRS, OXOID SpA, Milan, Italy) were suspended in saline up to a concentration corresponding to #0.5 McFarland. A total of 3 plates of MRS agar were seeded in 3 directions to produce a confluent growth, by sterile swab soaked in the bacterial suspension. Sorbent paper disks 6.0 mm diameter were placed on each plate and soaked with 10 μl of each oil. Disks soaked with […] pure DMSO were used as negative control. The plates were incubated at 37° C. for 24 hours in anaerobiosis (anaerogen gaspack, OXOID SpA, Milan, Italy). The experiment was carried out in duplicate.

[3] = test system: C. albicans strain (C.a. 15); experiment: Time-kill curve; format: cell-based; conditions: oil at its MFC, 2×10^5 CFU/ml C.a. 15, 35° C.
Protocol: A C. albicans strain (C.a. 15) was incubated with cinnamaldheyde and eugenol at their MFC. The C. albicans colonies were suspended in Sabouraud broth at a density corresponding to #1.4 McFarland (4×10^6 CFU/ml), then diluted 1/10 (4×10^5 CFU/ml, for a final concentration of 2×10^5 CFU/ml). The suspension was divided into aliquots, two aliquots were incubated with the oils (½ v/v) prepared at a concentration double of their MFC (for a final concentration equal to MFC); the third aliquot was diluted ½ with Sabouraud broth and was used as negative control. The mixtures were incubated at 35° C. on swinging plate. At T0, T1 h, T2 h, T4 h, T6 h, T8 h, T12 h and T24 h, 1/10 serial dilutions were carried out, to determine the total vital count (TVC). From each dilution, 100 μl were seeded in PDA and incubated at 35° C. for 24 hours, then the colonies were counted, their number expressed as CFU/ml. The test was carried out in duplicate.

Row | SMILES | MIC vs L. acidophilus relative to the average MIC vs Candida spp [1] | MIC vs L. acidophilus [1] [% v/v] | MIC vs L. acidophilus relative to the observed maximum MIC vs Candida spp [1] | Diameters of the inhibition rings (including 6.0 mm of the disk) (C. glabrata; C. glabrata 1) [mm] | Diameters of the inhibition rings (including 6.0 mm of the disk) (C. glabrata; C. glabrata 2) [mm] | inhibition ring diameter [2] | time to kill all the fungal cells [3] | time to kill all the fungal cells ([3]; listed as eugenol) [h]
1 | O=CC=Cc1ccccc1 [Cinnamaldheyde, cinnamaldehyde] | about 6.7 fold | 0.032 | double | 55.0 | 55.0 | 10 mm |  | 
2 | C=CCc1ccc(O)c(OC)c1 [Eugenol, eugenol] | about 6 fold | 0.25 | double | 35.0 | 30.5 | did not produced any inhibition ring | within the first hour | 1
